Holding throughout (experiment): inhibition of tumour cell growth, NCI panel, 48 h
For experiment [1], the system named is A549 NSCLC.
Experiment [2] has as its system CAKI-1 renal.
Experiment [3] has as its system COLO 205 colon.
Experiment [4] has as its system HCC-2998 colon.
In experiment [5] the test system is HCT-116 colon.
Experiment [6] concerns HCT-15 colon.
Experiment [7] has as its system HOP-62 NSCLC.
For experiment [8], the system named is K-562 leukemia.
The test system of experiment [9] is LOX IMVI melanoma.
Experiment [10] relates to MALME-3M melanoma.
Experiment [11] deals with MOLT-4 leukemia.
In experiment [12] the test system is OVCAR-4 ovarian.
Experiment [13] has as its system SR leukemia.
In experiment [14] the test system is TK-10 renal.
Experiment [15] deals with UO-31 renal.
Experiment [16] deals with IGROV1 ovarian.
The subject of experiment [17] is MCF7 breast.
Experiment [18] has as its system PC-3 prostate.
The test system of experiment [19] is SK-OV-3 ovarian.
The test system of experiment [20] is UACC-62 melanoma.

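The compound was tested at five concentrations on cells cultured in 96-well plates, with a 48-hour exposure period. TGI: total growth inhibition.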 Where a SMILES comes first, the peptide text is derived from it. [ ]: non-standard residue; d: D form. Phe(4-NO2) = N[CH](Cc1ccc([N+](=O)[O-])cc1)C(=O)O

With `Cc1ccc(C(c2c(O)c3ccccc3n(-c3ccccc3)c2=O)c2c(O)c3ccccc3n(-c3ccccc3)c2=O)cc1`, the TGI in [1], in experiment [2], in experiment [3], in [4], in [5] and in experiment [6] was greater than 100 µM in each case. The TGI in [7], in experiment [8], in [9], in [10], in experiment [11] and in [12] was greater than 100 µM throughout. In addition, the TGI in [13], in experiment [14] and in experiment [15] was greater than 100 µM throughout.

With `Cc1c2c(OCC(O)CN3CCN(c4ccccc4)CC3)nn(C)c(=O)c2c(C)n1-c1ccccc1` (centres undefined), the TGI is 73.7 µM in [1]; greater than 100 µM in [2]; 39.6 µM in experiment [3]; 78.3 µM in experiment [4]; 31.3 µM in experiment [5]; 43.5 µM in experiment [6]. The TGI in experiment [7] is greater than 100 µM; in experiment [16], greater than 100 µM; in experiment [8], 69.2 µM; in [10], 40.7 µM; in experiment [17], 36.5 µM; in experiment [11], 88.9 µM. Besides, the TGI in experiment [12] was greater than 100 µM; in [18], 55.9 µM; in experiment [19], greater than 100 µM; in experiment [14] it was greater than 100 µM; in experiment [20], 32 µM; in experiment [15] it was 43.2 µM.

Regarding `NC(=O)/C(=N\NC(=O)C[n+]1ccccc1)C1NC(=O)NC1=O` (centres undefined), the TGI in experiment [1], in experiment [2], in experiment [3], in experiment [4], in experiment [5] and in experiment [6] was greater than 100 µM throughout. Besides, the TGI in experiment [7], in experiment [16], in [8], in experiment [9], in [10] and in experiment [11] was greater than 100 µM each time. Moreover, the TGI in experiment [12], in experiment [19], in experiment [13], in experiment [14], in experiment [20] and in experiment [15] was greater than 100 µM throughout.

Turning to `CCSc1cc2c(cc1O)CC[C@@H]1[C@@H]2CC[C@]2(C)[C@@H](O)CC[C@@H]12`, the TGI in experiment [1] is 15.5 µM; in experiment [2] it was 26.4 µM; in experiment [3], 32.3 µM; in [4] it was 27.5 µM; in experiment [5] it was 32.7 µM; in experiment [6], 23.2 µM. Also, the TGI was 30.6 µM in experiment [7]; 25 µM in [16]; 21 µM in [8]; 23 µM in [9]; 23.8 µM in experiment [10]; 27.5 µM in experiment [17]. In addition, the TGI worked out at 21.2 µM in [11]; 38.7 µM in [12]; 18.9 µM in [18]; 39.2 µM in [19]; 62.3 µM in experiment [14]; 27.7 µM in [20]. The TGI in experiment [15] is 30.1 µM.

Regarding `COc1cc2oc(-c3ccc4c(c3)OCO4)c(OC)c(=O)c2c(OC)c1O`, the TGI in experiment [1], in [2], in experiment [3], in experiment [4], in [5] and in experiment [6] was greater than 100 µM each time. The TGI in experiment [7], in [16], in experiment [8], in experiment [9], in experiment [10] and in experiment [17] was greater than 100 µM each time. Also, the TGI in experiment [11], in experiment [12], in experiment [18], in experiment [19], in [14] and in experiment [20] was greater than 100 µM each time. For the same molecule, the TGI in [15] was greater than 100 µM.

As for `COc1ccc2[nH]cc(C(=O)C(=O)NC34CC5CC(CC(C5)C3)C4)c2c1`, the TGI in experiment [1] is greater than 100 µM; in [2], greater than 100 µM; in experiment [3], greater than 100 µM; in [4], greater than 100 µM; in experiment [5], greater than 100 µM; in [6], greater than 90.3 µM. Moreover, the TGI is 74.7 µM in experiment [7]; greater than 100 µM in experiment [16]; 37.6 µM in experiment [8]; greater than 100 µM in experiment [9]; greater than 100 µM in [10]; greater than 31.6 µM in experiment [17]. Besides, the TGI is 16.6 µM in experiment [11]; greater than 100 µM in experiment [12]; greater than 100 µM in [18]; greater than 100 µM in experiment [19]; greater than 100 µM in [14]; greater than 69.4 µM in [20]. The molecule further gave a TGI in [15] greater than 100 µM.

For `OCCCNc1ccnc2cc(Cl)ccc12`, the TGI in experiment [1], in experiment [2], in experiment [3], in [4], in [5] and in experiment [6] was greater than 100 µM throughout. The TGI in experiment [7], in experiment [16], in experiment [8], in [9], in experiment [10] and in [11] was greater than 100 µM in each case. Besides, the TGI in experiment [12], in [19], in experiment [13], in experiment [14], in experiment [20] and in experiment [15] was greater than 100 µM in each case.

As to `CC(NC(=O)C(Cc1ccc([N+](=O)[O-])cc1)NC(=O)C(N)CCCCN)C(=O)NC(Cc1ccc([N+](=O)[O-])cc1)C(N)=O` (centres undefined) (H-K[Phe(4-NO2)]A[Phe(4-NO2)]-NH2; configuration not given here), the TGI in experiment [1] was greater than 97 µM; in experiment [2], greater than 100 µM; in [3] it was greater than 100 µM; in experiment [4], greater than 64.8 µM; in [5] it was greater than 100 µM; in [6], greater than 100 µM. Also, the TGI in experiment [7] was greater than 52.1 µM; in experiment [16], greater than 100 µM; in experiment [8], greater than 55.3 µM; in experiment [9], greater than 100 µM; in [10], greater than 83.7 µM; in experiment [17] it was greater than 100 µM. The TGI in experiment [11] was greater than 59.4 µM; in [12], greater than 100 µM; in experiment [18], greater than 100 µM; in experiment [19] it was greater than 100 µM; in experiment [14] it was greater than 100 µM; in experiment [20] it was greater than 100 µM. For the same molecule, the TGI in experiment [15] was greater than 66.6 µM.

Turning to `C[Si](C)(N[Si](C)(C)OCCc1ccccc1)OCCc1ccccc1`, the TGI in experiment [2], in [4], in [5], in experiment [6], in [7] and in experiment [16] was greater than 100 µM each time. Moreover, the TGI in experiment [9], in [17], in [12], in [18], in [19] and in experiment [14] was greater than 100 µM each time. Moreover, the TGI in [20] and in [15] was greater than 100 µM each time.

As to `CN(C)CCCNC(=O)CCNC(=O)c1cc(NC(=O)c2cc(NC(=O)c3cc(NC(=O)c4nccn4C)cn3C)cn2C)cn1C`, the TGI in [1], in experiment [2], in experiment [3], in experiment [4], in experiment [5] and in experiment [6] was greater than 100 µM each time. Besides, the TGI in [7], in [16], in experiment [8], in [9], in experiment [10] and in experiment [17] was greater than 100 µM throughout. Moreover, the TGI in [11] is greater than 100 µM; in experiment [12] it was greater than 20.3 µM; in [18], greater than 100 µM; in experiment [19] it was greater than 100 µM; in [14], greater than 100 µM; in experiment [20] it was greater than 100 µM. In experiment [15], this molecule showed a TGI greater than 100 µM.

As to `O=C(SC1=NCCN1)c1cccc2ccccc12`, the TGI in [1], in experiment [2], in [3], in [4], in [5] and in experiment [6] was greater than 100 µM each time. The TGI is greater than 100 µM in experiment [7]; greater than 100 µM in experiment [16]; 73.5 µM in experiment [8]; greater than 100 µM in experiment [9]; greater than 100 µM in experiment [10]; greater than 100 µM in [17]. For the same molecule, the TGI is 43.2 µM in experiment [11]; greater than 100 µM in [12]; greater than 100 µM in experiment [18]; greater than 100 µM in experiment [19]; greater than 100 µM in experiment [14]; greater than 100 µM in experiment [20]. In experiment [15], the TGI is greater than 100 µM.

For `O=C(OCc1ccc([N+](=O)[O-])cc1)N1c2ccccc2[C@@]23O[C@]24CCC[C@H]3C#C/C=C\C#C[C@H]14`, the TGI in [1], in [2], in experiment [3], in experiment [4], in experiment [5] and in experiment [6] was greater than 100 µM each time. Also, the TGI in [16], in experiment [8], in [9], in experiment [10], in [17] and in [11] was greater than 100 µM throughout. Moreover, the TGI in experiment [12], in experiment [18], in [19], in experiment [14], in experiment [20] and in [15] was greater than 100 µM each time.

Regarding `CC(=O)C1Cn2c(=O)c3cc4ccccc4cc3c(=O)n2C=C1C` (centres undefined), the TGI in experiment [1], in [2], in experiment [3], in experiment [4], in experiment [5] and in experiment [6] was greater than 100 µM in each case. For the same molecule, the TGI in [7], in experiment [16], in experiment [8], in experiment [9], in experiment [10] and in experiment [11] was greater than 100 µM throughout. Moreover, the TGI in [12], in [19], in experiment [13], in experiment [14] and in [15] was greater than 100 µM throughout.

In the case of `COC(=O)[C@H](Cc1c[nH]c2ccccc12)NP(=O)(O)OC[C@H]1O[C@@H](n2cc(C)c(=O)[nH]c2=O)C[C@@H]1N=[N+]=[N-]`, the TGI in experiment [1], in [2], in experiment [3], in experiment [4], in experiment [5] and in [6] was greater than 100 µM in each case. The TGI in experiment [7], in experiment [16], in [8], in [9], in experiment [10] and in experiment [17] was greater than 100 µM in each case. In addition, the TGI in [11], in experiment [12], in experiment [18], in [19], in experiment [14] and in [20] was greater than 100 µM throughout. Also, the TGI in [15] is greater than 100 µM.

As to `CC1(C)C2CC(O)C1CCC2=O` (centres undefined), the TGI in experiment [1], in experiment [2], in experiment [3], in [4], in [5] and in [6] was greater than 100 µM in each case. The TGI in [7], in experiment [8], in experiment [9], in experiment [10], in experiment [17] and in experiment [11] was greater than 100 µM in each case. The TGI in experiment [12], in experiment [18], in experiment [19], in [14], in [20] and in experiment [15] was greater than 100 µM each time.

(Values after PubChem BioAssay (NCI).)
